Results on six compounds are retold here after US8846656B2, “Tetrahydropyrido-pyridine and tetrahydropyrido-pyrimidine compounds and use thereof as C5a receptor modulators” (Novartis AG, priority 2011, dated 2014).

Structures are written as SMILES.

For one data set, the system named is CD11b. In words: Human whole blood CD11b up-regulation assay. In kind it is cell-based. The conditions noted are these: Homo sapiens, 2 nM human C5a, CD15+ granulocytes, read-out: hCD11b IC50. In outline:
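Heparinized human whole blood (used within 2 h) preincubated 10 min at room temperature with compound in 1% DMSO, then stimulated with 2 nM human C5a for 15 min. After anti-CD15/anti-CD11b staining on ice and RBC lysis, CD11b median fluorescence on 10,000 CD15+ granulocytes measured by flow cytometry.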

A short description of a further data set: physchem. The conditions noted are these: thermodynamic from solid, 24 hr Equilibrium Solubility.
The next data set concerns the target human C5aR (Homo sapiens (Human), UniProt P21730). In words: FLIPR assay: inhibition of C5a-mediated calcium mobilization. The format is cell-based. The conditions noted are these: stable cell line over expressing human C5aR & Gα15, human C5a at EC50 (0.1-0.25 nM). Put shortly: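 Stable cell line overexpressing human C5aR with Gα15, measured on FLIPR Tetra. Cells loaded 1 h at 37° C with calcium 5 dye and 2.5 mM probenecid in HBSS/20 mM HEPES/0.1% BSA. Compounds preincubated 30 minutes at room temperature in 1% DMSO before C5a.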
(A change in cytosolic calcium serves as a functional read-out for many receptors and channels.)

human C5aR, sequence (P21730 whole entry): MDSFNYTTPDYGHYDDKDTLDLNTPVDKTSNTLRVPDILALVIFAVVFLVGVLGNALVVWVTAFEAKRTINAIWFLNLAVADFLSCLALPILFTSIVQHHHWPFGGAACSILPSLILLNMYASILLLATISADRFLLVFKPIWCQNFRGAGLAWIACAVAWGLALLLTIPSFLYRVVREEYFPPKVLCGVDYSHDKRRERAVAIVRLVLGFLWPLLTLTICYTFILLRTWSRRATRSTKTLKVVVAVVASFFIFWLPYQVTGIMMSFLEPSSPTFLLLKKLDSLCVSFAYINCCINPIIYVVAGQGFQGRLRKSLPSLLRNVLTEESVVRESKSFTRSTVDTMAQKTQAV

A word on the IC50: it is the point on the concentration scale where inhibition reaches its midpoint. Usually thermodynamic solubility stands for solubility found after equilibrating the solid with the medium. Regarding `CO[C@H]1C[C@H]2CC[C@@H](C1)N2c1nc(-c2c(C)ccc3[nH]nc(C)c23)nc2c1CN(c1cc(C(C)C)ccc1C)CC2` [Example 19-F, 2-(3,5-Dimethyl-1H-indazol-4-yl)-6-(5-isopropyl-2-methylphenyl)-4-((3-endo)-3-methoxy-8-azabicyclo[3.2.1]octan-8-yl)-5,6,7,8-tetrahydropyrido[4,3-d]pyrimidine], the values for the 50% inhibitory concentration (IC50) in the data set on CD11b and at human C5aR were 13 nM and 4 nM, respectively. The thermodynamic solubility at 24 h is greater than 26500 µg/mL in the data set “physchem” (oil or lipid); less than 0.5 µg/mL in the data set “physchem” (pH 1, simulated gastric fluid); less than 0.5 µg/mL in the data set “physchem” (pH 4.5, aqueous buffer); less than 0.5 µg/mL in the data set “physchem” (pH 5.5, fessif); less than 0.5 µg/mL in the data set “physchem” (pH 6.5, fassif); less than 0.5 µg/mL in the data set “physchem” (pH 6.8, aqueous buffer). The solubility (thermodynamic) at 24 h in the data set “physchem” (simulated gastric fluid) and in “physchem” (water) was less than 0.5 µg/mL throughout.

Take `CO[C@@H]1CCN(c2nc(-c3c(C)ccc4[nH]nc(C)c34)nc3c2CN(c2cc(Cl)ccc2C)CC3)[C@H](C)C1` [Example 21-AG, 6-(5-chloro-2-methylphenyl)-2-(3,5-dimethyl-1H-indazol-4-yl)-4-((2R,4R)-4-methoxy-2-methylpiperidin-1-yl)-5,6,7,8-tetrahydropyrido[4,3-d]pyrimidine]: the 50% inhibitory concentration (IC50) in the data set with CD11b was 22 nM; at human C5aR, 1 nM.

`CO[C@@H]1CCN(c2nc(-c3c(C)ccnc3C)nc3c2CN(c2cc(C(C)C)ccc2C)CC3)[C@H](C)C1` [Example 21-S, 2-(2,4-dimethylpyridin-3-yl)-6-(5-isopropyl-2-methylphenyl)-4-((2R,4R)-4-methoxy-2-methylpiperidin-1-yl)-5,6,7,8-tetrahydropyrido[4,3-d]pyrimidine]: the IC50 came to 180 nM in the data set with CD11b and 30 nM at human C5aR.

Turning to `COc1nc(-c2c(C)ccc3[nH]nc(Cl)c23)nc2c1CN(c1cc(C(C)C)ccc1C)CC2` [Example 32-A, 2-(3-Chloro-5-methyl-1H-indazol-4-yl)-6-(5-isopropyl-2-methylphenyl)-4-methoxy-5,6,7,8 tetrahydropyrido[4,3-d]pyrimidine], the results for the concentration for half-maximal inhibition (IC50) in the data set with CD11b and on human C5aR were 63 nM and 6 nM, respectively.

For the compound `Cc1ccc(C(C)C)cc1N1CCc2nc(-c3cccc4[nH]cc(C)c34)nc(N3CCN(C4COC4)[C@H](C)C3)c2C1` [Example 30-A, (R)-6-(5-Isopropyl-2-methylphenyl)-2-(3-methyl-1H-indol-4-yl)-4-(3-methyl-4-(oxetan-3-yl)piperazin-1-yl)-5,6,7,8-tetrahydropyrido[4,3-d]pyrimidine], the IC50 with CD11b was 5780 nM; at human C5aR it was 16 nM.

Consider `CO[C@@H]1CCN(c2nc(-c3c(C)ccc4[nH]nc(C)c34)nc3c2CN(c2cc(C(C)C)ccc2C)CC3)[C@H](C)C1` [Example 21-Q, (+)-2-(3,5-dimethyl-1H-indazol-4-yl)-6-(5-isopropyl-2-methylphenyl)-4-((2R,4R)-4-methoxy-2-methylpiperidijn-1-yl)-5,6,7,8-tetrahydropyrido[4,3-d]pyrimidine], for which the IC50 in the data set on CD11b came out at 7 nM; on human C5aR, 1 nM.
